The source of these data is ChEMBL document CHEMBL4665887, “Identification, Structure-Activity Relationships of Marine-Derived Indolocarbazoles, and a Dual PKCθ/δ Inhibitor with Potent Antipancreatic Cancer Efficacy” (J Med Chem, 2020).

SMILES strings stand for the structures.

Data set [1] in a line: Toxicity in BALB/c mouse model of patient-derived xenograft implanted with patient-derived pancreatic cancer cells assessed as effect on normal anatomical structures of heart at 30 mg/kg, ip QD for 18 days relative to control. To be noted: in vivo, 432 h, time 18 day. The class given is organism-based. In general terms: In xenograft studies the graft and the host belong to different species.

Data set [2] can be described thus: Toxicity in BALB/c mouse model of patient-derived xenograft implanted with patient-derived pancreatic cancer cells assessed as effect on normal anatomical structures of kidney at 30 mg/kg, ip QD for 18 days relative to control. It is filed as organism-based. As to conditions: in vivo, 432 h, time 18 day.
The nature of data set [3]: Toxicity in BALB/c mouse model of patient-derived xenograft implanted with patient-derived pancreatic cancer cells assessed as effect on normal anatomical structures of lung at 30 mg/kg, ip QD for 18 days relative to control. To be noted: in vivo, 432 h, time 18 day. The class given is organism-based.
A short description of data set [4]: Toxicity in BALB/c mouse model of patient-derived xenograft implanted with patient-derived pancreatic cancer cells assessed as effect on normal anatomical structures of liver at 30 mg/kg, ip QD for 18 days relative to control. It is filed as organism-based. As to conditions: in vivo, 432 h, time 18 day.
The test system of a further data set is BXPC-3. Kind of data set: Antitumor activity against human BXPC-3 cells xenografted in nude BALB/c mouse assessed as inhibition of tumor growth at 30 mg/kg, ip QD for 18 days relative to control. To be noted: BXPC-3, ip, 432 h, time 18 day, read-out: TGI. It is filed as functional.
A short description of data set [5]: Antitumor activity against patient-derived pancreatic cancer cells xenografted in BALB/c mouse model of patient-derived xenograft assessed as inhibition of tumor growth at 30 mg/kg, ip QD for 18 days relative to control. As to conditions: Homo sapiens, Pancreatic cancer cell, 432 h, time 18 day, read-out: TGI. It is filed as functional.
Data set [6] can be described thus: Toxicity in BALB/c mouse model of patient-derived xenograft implanted with patient-derived pancreatic cancer cells assessed as effect on body weight at 30 mg/kg, ip QD for 18 days relative to control. It is filed as organism-based. To be noted: in vivo, 432 h, time 18 day.
Data set [7] in a line: Toxicity in nude BALB/c mouse xenografted with human BXPC-3 cells assessed as effect on body weight level at 30 mg/kg, ip QD for 18 days relative to control. It is filed as organism-based. As to conditions: in vivo, 432 h, time 18 day.
A short description of data set [8]: Toxicity in BALB/c mouse model of patient-derived xenograft implanted with patient-derived pancreatic cancer cells assessed as effect on normal anatomical structures of spleen at 30 mg/kg, ip QD for 18 days relative to control. The class given is organism-based. As to conditions: in vivo, 432 h, time 18 day.

In the case of `CC(=O)c1cc2c(o1)C(=O)c1ccccc1C2=O` [NAPABUCASIN], the Activity entry in data set [1], in data set [2], in data set [3], in data set [4], in data set [6] and in data set [7] was “Non-Toxic” each time. Moreover, in data set [8], the Activity result is reported as “Non-Toxic”. In addition, the inhibition in vivo at 30 mg/kg in the data set with BXPC-3 came to 34.2%; in data set [5], 41.8%.
